# Experimental data taken from patent US20240293483A1, “PROBIOTIC COMPOSITION FOR THE TREATMENT OF INCREASED INTESTINAL PERMEABILITY” (AB-BIOTICS, S.A., priority 2021, published 2024).
# Columns and labels:
# polyP [1] = experiment: Polyphosphate (polyP) production assay: hypochlorite extraction from cells, DAPI fluorescence quantification
# Description: For polyP production assay, malic enzyme induction (MEI) medium containing (per liter, w/v) 0.5% yeast extract, 0.5% tryptone, 0.4% K2HPO4, 0.5% KH2PO4, 0.02% MgSO4·7H2O, 0.005% MnSO4, 1 ml of Tween 80, 0.05% cysteine, and 0.5% glucose was used (Alcántara et al. 2014). The strains unable to grow in MEI were grown in MRScys. Cultures were inoculated at OD (595 nm) 0.1 and each strain was grown under the conditions indicated above. Growth was monitored by measuring OD for 16 h.
# PolyP was isolated from cells by its resistance to hydrolysis with sodium hypochlorite as previously described (Alcántara et al. 2014). Cells were harvested by centrifugation and lysed in 1 ml of 5% sodium hypochlorite with gentle agitation for 45 min at room temperature. Insoluble material was pelleted by centrifugation at 16,000 g for 5 min at 4° C. and washed twice with 1 ml of 1.5 M NaCl plus 1 mM EDTA at 16,000 g for 5 min at 4° C. PolyP was extracted from the pellets with two consecutive washes with 1 ml of water and a centrifugation step at 16,000 g for 5 min at 4° C. between them. PolyP in the pooled water extracts was precipitated by adding 0.1 M NaCl and 1 volume of ethanol, followed by incubation on ice for 1 h. After centrifugation at 16,000 g for 10 min, the polyP pellet was resuspended in 50 μL of water.
# A standard curve relating phosphate amount to fluorescence intensity was built to quantify the extracted polyP from the strains. As a first step, serial dilutions of a sample of polyP isolated from the polyphosphate-producer control strain Lactiplantibacillus plantarum strain WCFS1 (Alcántara et al. 2014) were prepared. Second, the dilutions were hydrolyzed with a volume of 2 M HCl, incubated at 95° C. for 15 min to release phosphate and then neutralized by adding […] of 2 M NaOH. Third, the released phosphate from each dilution was quantified with BIOMOL Green Kit (Enzo Life Sciences) as recommended by the manufacturer. In parallel, the released phosphate from each dilution was dyed using 4′,6-diamidino-2-phenylindole (DAPI) at a final concentration of 10 μM in 50 mM Tris-HCl pH 7.5, 50 mM NaCl buffer and fluorescence was measured with an excitation wavelength of 415 nm and emission at 550 nm in a fluorimeter. Finally, a standard curve was built with phosphate values and the corresponding fluorescence values obtained.
# Once the standard curve is obtained, polyP amounts from the samples can be quantified according to fluorescence values, without the need of using BIOMOL Green kit. Therefore, the quantification of polyP from the strain samples was indirectly measured by DAPI fluorescence using the standard curve. Firstly, the extracted polyP was measured by fluorescence using DAPI at a final concentration of 10 μM in 50 mM Tris-HCl pH 7.5, 50 mM NaCl buffer with an excitation wavelength of 415 nm and emission at 550 nm in a fluorimeter. Then, the amount of polyP was calculated as nmol of phosphate by means of the standard curve. At least three biological replicates were performed.
# B. longum CECT 7894 was grown in medium MEI without glucose supplemented with i) breast milk (1% v/v); ii) LNT (1% w/v); iii) polyamines, in quantities found in breast milk: 70.0, 424.2 and 610.0 […] of putrescine, spermidine and spermine, respectively, and glucose (0.5% w/v); and iv) glucose (0.5% w/v) as positive control. Growth (OD550) and polyP production were determined after 6 and 16 h of incubation.
# [2] = Stability of the strain in final product (plate counting of cfus, Zone II storage); assay type: physicochemical; conditions: 25° C., 60% RH
# Description: The product was packaged in glass amber bottles and stored under Zone II conditions (25° C., 60% Relative Humidity (RH)). […] Results were expressed in LOG (cfus). Trend line was obtained and predicted cfus at 12 months were estimated. Fold and log reduction comparing cfus between 0 and 12 months were calculated.
# [3] = tested on: Caco-2 intestinal epithelial cells; experiment: Adhesion to the intestinal epithelium in vitro; assay type: cell-based; conditions: Caco-2 monolayers, MOI 1:5, 1 h at 37° C., % of LOG cfu/mL
# Description: Adhesion to the intestinal epithelium was studied in vitro using Caco-2 intestinal epithelial cells. Bacterial suspensions were added to Caco-2 monolayers (Multiplicity of infection (MOI) 1:5 cells to probiotic) and to wells without Caco-2 cells as controls. After 1 h of incubation at 37° C., medium was removed, cells were detached, and suspensions recovered. Bacteria were enumerated in the obtained suspension by serial dilutions and plate count. Bacteria in the medium of the control wells were also quantified. B. longum subsp. longum ATCC 15707 was used as quality control with a known adhesion percentage of 47-55.
# polyP [4] = experiment: PolyP amount in culture supernatants (extracellular); conditions: 16 h
# Description: B. longum CECT 7894 was grown in MEI medium and Low Phosphate (LP) medium. The last medium has the same composition as MEI but without the addition of polyP precursors (K2HPO4 and KH2PO4), thus the strain cannot produce high amounts of polyP. After 16 h growth cultures were centrifuged and supernatants collected, filtered, and adjusted to neutral pH. PolyP amounts were measured as described in EXAMPLE 1.
# Caco-2 cells monolayer = experiment: Barrier integrity (TEER) and permeability (Papp of Lucifer Yellow) of Caco-2 monolayer; assay type: cell-based; conditions: Caco-2, 72 h apical exposure to high-polyP supernatant (MEI culture) vs low-polyP supernatant and controls
# Description: Integrity of Caco-2 cells monolayer was evaluated by measuring transepithelial electrical resistance (TEER) and permeability by the apparent permeability coefficients (Papp) of the paracellular transport marker Lucifer Yellow.
# Caco-2 cells were seed in porous membrane inserts with apical (upper) and basolateral (lower) compartments. Medium Essential Medium Eagle (MEM) was added to both compartments. Cells were treated with supernatants of B. longum CECT 7894 grown in MEI and LP media. Additional cells were treated with MEM, non-fermented MEI and LP media and used as controls.
# After 72 h of treatment, TEER and permeability were determined. TEER was measured with a Millicell®-ERS voltammeter. For the permeability assay, Lucifer Yellow was added to the apical compartment. At 15, 30, 45, 60, 90 and 120 min, aliquots were taken from the basolateral compartment and the fluorescence of the Lucifer Yellow transported was measured with a fluorescence microplate reader at excitation/emission wavelengths of 485/520 nm.
# HSP27 = HSP27 production by Western blot; assay type: cell-based; conditions: Caco-2, 16 h, high-polyP supernatant (MEI) vs low-polyP supernatant (LP); normalized to β-actin
# Description: The production of HSP27 was studied in Caco-2 intestinal epithelial cells in confluence by Western blot assay as described by Alcántara et al., 2018 with some modifications. Bacterial supernatants were added to the cell cultures and incubation proceeded for 16 h. MEI and LP media were used as controls. To recover HSP27, cells were lysed with […] and boiled for 5 min. Proteins were separated in SDS-PAGE gel and then transferred to a nylon membrane (blot). The blots were incubated with a rabbit polyclonal anti-HSP27 serum or with a mouse monoclonal anti-β-actin antibody (protein used for normalization). After washing, secondary antibodies peroxidase-conjugated anti-rabbit IgG and anti-mouse IgG, respectively, were used. Blots images were captured, and proteins were quantified in an Imagin 680 system.
# Zonula ocludens-1 (ZO1) = experiment: Expression of tight junction genes by qPCR: ZO1; assay type: cell-based; conditions: Caco-2, 16 h, high-polyP vs low-polyP supernatant
# Description: (§1) Caco-2 cells were exposed for 16 h to supernatants of B. longum CECT 7894 grown in MEI and LP media. Then, cells were recovered, and RNA extracted with TRIZOL reagent. cDNA was obtained from RNA using SuperScript VILO cDNA synthesis kit. Quantitative PCR (qPCR) reactions were performed with SYBR Green in the conditions indicated by manufacturer. Expression of tight junction proteins Zonula ocludens-1 (ZO1), Junctional adhesion protein-1 (JAM1) and occluding was quantified. Expression of 18S rRNA and GADPH genes were used for normalization.
# [5] = tested on: Junctional adhesion protein-1 (JAM1); experiment: Expression of tight junction genes by qPCR: JAM1; assay type: cell-based; conditions: Caco-2, 16 h, high-polyP vs low-polyP supernatant
# Description: as §1
# Occludin = experiment: Expression of tight junction genes by qPCR: occludin; assay type: cell-based; conditions: Caco-2, 16 h, high-polyP vs low-polyP supernatant
# Description: as §1
# [6] = tested on: dextran sulfate sodium (DSS)-induced colitis; conditions: mice, combined with infliximab; cited from earlier work
substance,measurement,setting,value
Bifidobacterium longum subsp. longum KABP-042 (CECT 7894),times more polyP than B. scardovii BAA-773,polyP [1]; 6 h,140 times
same,times more polyP than L. plantarum WCFS1,polyP [1]; 6 h values (12.7 vs 230.9 nmol),18 times
same,"PolyP 6 h, Polyamines","polyP [1]; MEI + polyamines (putrescine, spermidine, spermine) + glucose 0.5%, 6 h",111.0 nmol
same,"PolyP 16 h, Polyamines","polyP [1]; MEI + polyamines + glucose 0.5%, 16 h",48.6 nmol
same,PolyP 6 h,"polyP [1]; MEI or MRScys, inoculated at OD 0.1, 6 h of growth, nmol of phosphate",230.9 nmol
same,PolyP 16 h,"polyP [1]; MEI or MRScys, inoculated at OD 0.1, 16 h of growth, nmol of phosphate",258.3 nmol
same,"PolyP 6 h, Control (glucose)","polyP [1]; MEI with glucose 0.5%, 6 h",110.2 nmol
same,"PolyP 16 h, Control (glucose)","polyP [1]; MEI with glucose 0.5%, 16 h",70.2 nmol
same,"PolyP 6 h, LNT","polyP [1]; MEI without glucose + LNT 1% w/v, 6 h",117.0 nmol
same,"PolyP 16 h, LNT","polyP [1]; MEI without glucose + LNT 1% w/v, 16 h",145.0 nmol
same,"PolyP 6 h, Breast milk","polyP [1]; MEI without glucose + breast milk 1% v/v, 6 h",18.5 nmol
same,"PolyP 16 h, Breast milk","polyP [1]; MEI without glucose + breast milk 1% v/v, 16 h",2.0 nmol
same,LOG (cfus) estimated at 12 months,"[2]; final product in sunflower oil, trend line from 0-6 months",9.01 LOG (cfus)
same,LOG loss over 12 months,"[2]; final product, 0 vs 12 months",~0.5 LOG
same,Adhesion to intestinal epithelium (%),[3],70.8%
same,Adhesion to intestinal epithelium (%),[3]; listed as B. longum subsp. longum KABP042 (CECT 7894),70.8%
same,"PolyP amount in supernatant, MEI medium",polyP [4]; high phosphate (MEI medium),2.24 nmol
same,"PolyP amount in supernatant, LP medium",polyP [4]; low phosphate (LP medium),0.22 nmol
same,transepithelial electrical resistance (TEER),Caco-2 cells monolayer,higher TEER
same,production of HSP27,HSP27,significantly higher production of HSP27
same,expression of tight junction protein ZO1,Zonula ocludens-1 (ZO1),induced
same,expression of tight junction protein JAM1,[5],induced
same,expression of tight junction protein Occludin,Occludin,induced
same,effect on efficacy of infliximab in DSS-induced colitis,[6],improved the efficacy of infliximab
